These results are taken from doi:10.1101/2024.08.19.608619, “Discovery of potent SARS-CoV-2 nsp3 macrodomain inhibitors uncovers lack of translation to cellular antiviral response” (bioRxiv, 2024).

Assay [1] concerns the target T1, SARS-CoV-2 nsp3-mac1 (Severe acute respiratory syndrome coronavirus 2, UniProt P0DTD1). Kind of assay: biochemical. The class given is biochemical. The note with it: SARS-CoV-2 nsp3 macrodomain TR-FRET single point. Background: In TR-FRET formats the signal depends on donor and acceptor labels being close together.
Assay [2] addresses T1, SARS-CoV-2 nsp3-mac1. Kind of assay: biochemical. More on the design: SARS-CoV-2 nsp3 macrodomain TR-FRET single point, per cent inhibition, n=2.
[3] abbreviates: read-out: perc_inhibition_mean, batch_name=ASAP-0000455-001.
Where [4] appears, read: read-out: perc_inhibition_mean, batch_name=ASAP-0000403-001.
The mark [5] stands for this setting: read-out: perc_inhibition_mean, batch_name=ASAP-0000407-001.
Where [6] appears, read: read-out: perc_inhibition_mean, batch_name=ASAP-0000301-001.
Setting [7] is: read-out: perc_inhibition_mean, batch_name=ASAP-0000300-001.
Where [8] appears, read: read-out: perc_inhibition_mean, batch_name=ASAP-0000470-001.
Setting [9] is: read-out: perc_inhibition_mean, batch_name=ASAP-0000365-001.
Setting [10] is: read-out: perc_inhibition_mean, batch_name=ASAP-0000203-002.
The mark [11] stands for this setting: read-out: perc_inhibition_mean, batch_name=ASAP-0000381-001.
[12] abbreviates: read-out: perc_inhibition_mean, batch_name=ASAP-0000428-001.
Where [13] appears, read: read-out: perc_inhibition_mean, batch_name=ASAP-0000334-001.

Read-outs that look alike come from different tables or passages of the source.

Turning to `CC(C)[C@@H](Nc1ncnc2[nH]ccc12)c1cccs1` [ASAP-0000455], the perc_inhibition_mean on SARS-CoV-2 nsp3-mac1 [1] (concentration 49.75 uM) is 84.659%. Further, the perc_inhibition_mean on SARS-CoV-2 nsp3-mac1 [1] (concentration 99.5 uM) amounted to 89.893%. On SARS-CoV-2 nsp3-mac1 [2] (setting [3]), the inhibition at 49.75 µM stood at 84.7% and the inhibition at 99.5 µM was found to be 89.9%.
Consider `O=C1CCN(C(=O)c2cnn3ccc(C4CCN(C(=O)c5ccccc5)CC4)cc23)CCN1` [ASAP-0000403], for which the perc_inhibition_mean at SARS-CoV-2 nsp3-mac1 [1] (concentration 49.75 uM) is -2.402%. Moreover, the perc_inhibition_mean on SARS-CoV-2 nsp3-mac1 [1] (concentration 99.5 uM) was -7.808%. Besides, on SARS-CoV-2 nsp3-mac1 [2] (setting [4]), the inhibition at 49.75 µM was -2.4% and the inhibition at 99.5 µM was -7.81%.
`Oc1ccccc1CNc1ncnc2[nH]cnc12` [ASAP-0000083]: the perc_inhibition_mean at SARS-CoV-2 nsp3-mac1 [1] (concentration 50.0 uM) amounted to 1.904%. Besides, the inhibition at 50 µM on SARS-CoV-2 nsp3-mac1 [2] (read-out: perc_inhibition_mean, batch_name=ASAP-0000083-001) stood at 1.9%.
`O=C1CN(c2ccc(Nc3ncnc4[nH]ccc34)cn2)CCN1` [ASAP-0000037]: the perc_inhibition_mean at SARS-CoV-2 nsp3-mac1 [1] (concentration 50.0 uM) is recorded as -16.793%. The inhibition at 50 µM on SARS-CoV-2 nsp3-mac1 [2] (read-out: perc_inhibition_mean, batch_name=ASAP-0000037-001) was -16.8%.
Regarding `C[C@@H](NC(=O)c1cnn2ccc(C3CCN(C(=O)c4ccccc4)CC3)cc12)c1cc[nH]n1` [ASAP-0000407], at SARS-CoV-2 nsp3-mac1 [1] (concentration 49.75 uM), the perc_inhibition_mean is on record as -4.99%. In addition, the perc_inhibition_mean at SARS-CoV-2 nsp3-mac1 [1] (concentration 99.5 uM) was -2.773%. Besides, on SARS-CoV-2 nsp3-mac1 [2] (setting [5]), the inhibition at 49.75 µM was -4.99% and the inhibition at 99.5 µM was -2.77%.
Regarding `c1ccc(-c2n[nH]cc2CNc2cnc3[nH]ncc3c2)cc1` [ASAP-0000059], the perc_inhibition_mean on SARS-CoV-2 nsp3-mac1 [1] (concentration 50.0 uM) is recorded as -2.044%. For the same compound, at SARS-CoV-2 nsp3-mac1 [2] (read-out: perc_inhibition_mean, batch_name=ASAP-0000059-001), the inhibition at 50 µM was -2.04%.
For the compound `Cc1cccc(Cl)c1S(=O)(=O)Nc1cnc2[nH]ncc2c1` [ASAP-0000140], the perc_inhibition_mean on SARS-CoV-2 nsp3-mac1 [1] (concentration 50.0 uM) is given as -0.254%. Also, the inhibition at 50 µM on SARS-CoV-2 nsp3-mac1 [2] (read-out: perc_inhibition_mean, batch_name=ASAP-0000140-001) is -0.254%.
Take `C[C@@H]1CN(C(=O)c2ccc(NC(=O)Nc3ccccc3)cc2)CC(=O)N1` [ASAP-0000301]: on SARS-CoV-2 nsp3-mac1 [1] (concentration 49.75 uM, n=2), the perc_inhibition_mean was -0.707%. Moreover, at SARS-CoV-2 nsp3-mac1 [1] (concentration 99.5 uM, n=2), the perc_inhibition_mean amounted to 0.29%. In addition, at SARS-CoV-2 nsp3-mac1 [2] (setting [6]), the inhibition at 49.75 µM is -0.707% and the inhibition at 99.5 µM was determined as 0.29%.
As to `Cc1n[nH]cc1CN(C)C(=O)c1ccc(NC(=O)Nc2ccccc2)cc1` [ASAP-0000300], the perc_inhibition_mean on SARS-CoV-2 nsp3-mac1 [1] (concentration 49.75 uM, n=2) is recorded as -3.77%; on SARS-CoV-2 nsp3-mac1 [1] (concentration 99.5 uM, n=2) it was -0.031%. Besides, the inhibition at 49.75 µM at SARS-CoV-2 nsp3-mac1 [2] (setting [7]) is -3.77%. Besides, the inhibition at 99.5 µM on SARS-CoV-2 nsp3-mac1 [2] (setting [7]) is -0.031%.
`C[C@@H](Nc1ncnc2[nH]ccc12)c1cnn(Cc2ccccc2)c1` [ASAP-0000470]: the perc_inhibition_mean on SARS-CoV-2 nsp3-mac1 [1] (concentration 49.75 uM) is given as -4.105%. Further, at SARS-CoV-2 nsp3-mac1 [1] (concentration 99.5 uM), the perc_inhibition_mean was 3.18%. In addition, on SARS-CoV-2 nsp3-mac1 [2] (setting [8]), the inhibition at 49.75 µM is -4.11% and the inhibition at 99.5 µM is 3.18%.
Regarding `Cc1ccc2ccccc2c1-c1ncnc2[nH]ccc12` [ASAP-0000365], the perc_inhibition_mean is reported as -5.321% on SARS-CoV-2 nsp3-mac1 [1] (concentration 49.75 uM) and -9.099% on SARS-CoV-2 nsp3-mac1 [1] (concentration 99.5 uM). For the same compound, the inhibition at 49.75 µM on SARS-CoV-2 nsp3-mac1 [2] (setting [9]) was -5.32%. For the same compound, the inhibition at 99.5 µM at SARS-CoV-2 nsp3-mac1 [2] (setting [9]) was -9.1%.
With `Cc1ccc(-c2n[nH]cc2CNc2cnc3[nH]ncc3c2)o1` [ASAP-0000203], the perc_inhibition_mean on SARS-CoV-2 nsp3-mac1 [1] (concentration 50.0 uM) is 7.232%; on SARS-CoV-2 nsp3-mac1 [1] (concentration 50.0 uM, n=2), -21.592%; on SARS-CoV-2 nsp3-mac1 [1] (concentration 100.0 uM, n=2), -24.84%. Also, the inhibition at 50 µM on SARS-CoV-2 nsp3-mac1 [2] (read-out: perc_inhibition_mean, batch_name=ASAP-0000203-001) is 7.23%; at SARS-CoV-2 nsp3-mac1 [2] (setting [10]), -21.6%. Also, the inhibition at 100 µM on SARS-CoV-2 nsp3-mac1 [2] (setting [10]) was -24.8%.
As for `Cc1nn(C)c(C)c1[C@H]1COCCN1c1ncnc2[nH]ccc12` [ASAP-0000381], the perc_inhibition_mean at SARS-CoV-2 nsp3-mac1 [1] (concentration 49.75 uM) is listed as -0.137%. Further, the perc_inhibition_mean on SARS-CoV-2 nsp3-mac1 [1] (concentration 99.5 uM) was -0.128%. Further, at SARS-CoV-2 nsp3-mac1 [2] (setting [11]), the inhibition at 49.75 µM was -0.137% and the inhibition at 99.5 µM was -0.128%.
For the compound `CC(C)[C@H]1CNC(=O)CN1c1ncnc2[nH]ccc12` [ASAP-0000428], on SARS-CoV-2 nsp3-mac1 [1] (concentration 49.75 uM), the perc_inhibition_mean was determined as 6.836%. In addition, at SARS-CoV-2 nsp3-mac1 [1] (concentration 99.5 uM), the perc_inhibition_mean is listed as 17.564%. Further, at SARS-CoV-2 nsp3-mac1 [2] (setting [12]), the inhibition at 49.75 µM turned out to be 6.84% and the inhibition at 99.5 µM stood at 17.6%.
For the compound `CSc1cccc(NC(=O)c2ncnc3[nH]ccc23)c1` [ASAP-0000192], the perc_inhibition_mean on SARS-CoV-2 nsp3-mac1 [1] (concentration 50.0 uM) is given as -4.669%. On SARS-CoV-2 nsp3-mac1 [2] (read-out: perc_inhibition_mean, batch_name=ASAP-0000192-001), the inhibition at 50 µM is -4.67%.
Take `O=C(CCN(Cc1cccc(Cl)c1)C(=O)c1cnon1)N1CCNCC1` [ASAP-0000334]: the perc_inhibition_mean on SARS-CoV-2 nsp3-mac1 [1] (concentration 49.75 uM, n=2) is on record as -2.442%. Also, the perc_inhibition_mean on SARS-CoV-2 nsp3-mac1 [1] (concentration 99.5 uM, n=2) was -1.082%. Further, at SARS-CoV-2 nsp3-mac1 [2] (setting [13]), the inhibition at 49.75 µM is -2.44% and the inhibition at 99.5 µM was -1.08%.
